What was measured:
[1] = Molar extinction coefficient (UV absorption) in methanol; format: physicochemical; settings: at λmax 305 nm in methanol
[2] = Vesicle formation and stability of aqueous dispersion; format: physicochemical
Source text: However, this short duration of stability of aqueous suspension is sufficient for conducting the photoprotection experiment.

[3] = system: hairless skin of inner side of forearm; assay: Photoprotection on human forearm skin exposed to midday sun; melanin content and erythema levels by Mexameter-18; format: in vivo; settings: liposomal vs non-vesicle aqueous suspension
Method: Liposomal dispersion composition (200 mg of 5.0% dispersion) of p-methoxy cinnamidopropyldimethylbehenyl ammonium tosylate and a cream preparation containing octyl methoxy cinnamate (200 mg of cream containing 5% OMC) are applied on hairless skin of inner side of forearm (36 cm^2). The forearms are exposed to midday sun for 15 minutes. The melanin content and erythema levels have been measured by Mexameter-18 (Courage+Khazakha, gmbh, Germany) before and after the exposure.

| SMILES | Molar extinction coefficient, ε [1] | Stability of dispersion in water ([2]; aqueous suspension) | Vesicle formation ([2]; lipid by itself in water) | Photoprotection efficacy compared with p-methoxy cinnamidopropyl dimethyllauryl ammonium tosylate suspension [3] |
| --- | --- | --- | --- | --- |
| CCCCCCCCCCCCCCCCCCCCCC[N+](C)(C)CCCNC(=O)c1ccc(N(C)C)cc1.Cc1ccc(S(=O)(=O)[O-])cc1 [p-N,N-dimethylamine benzamidopropyldimethylbehenyl ammonium tosylate] | 22,200 |  |  |  |
| CCCCCCCCCCCC[N+](C)(C)CCCNC(=O)C=Cc1ccc(OC)cc1.Cc1ccc(S(=O)(=O)[O-])cc1 [p-methoxy cinnamidopropyl dimethyllauryl ammonium tosylate] |  | unstable dispersion in water | does not form vesicles |  |
| CCCCCCCCCCCCCCCCCCCCCC[N+](C)(C)CCCNC(=O)C=Cc1ccc(OC)cc1.Cc1ccc(S(=O)(=O)[O-])cc1 [p-methoxy cinnamidopropyldimethylbehenyl ammonium tosylate] | 23,000 |  |  | much more superior in protecting skin |

From patent US7147866B2, “UV-absorbing lipid vesicles” (Galaxy Surfactants Limited, priority 2004, dated 2006)
